Data from patent US20070128217A1 (priority 2003, published 2007).

What was measured:
[1] = test system: control sera (pooled serum of ten healthy LUMC hospital workers; commercial negative donor pooled serum from the Dutch bloodbank); type: binding, human; set-up: Binding of Control serum LUMC to linear peptides / Binding of Control serum Blood-bank to linear peptides / Binding of Control serum LUMC to looped peptides / Binding of Control Serum Blood-Bank to Looped peptides / Binding of Control serum LUMC to linear peptides of the protein M of SARS-CoV Urbani / Binding of Control serum Blood-bank to linear peptides of the protein M of SARS-CoV Urbani / Binding of Control serum LUMC to looped peptides of the protein M of SARS-CoV Urbani / Binding of Control Serum Blood-Bank to Looped peptides of the protein M of SARS-CoV Urbani: unit not given here
[2] = test system: rabbit serum obtained by immunizing a rabbit with the SARS-CoV strain Frankfurt 1; type: binding; set-up: Binding of a rabbit serum to linear peptides / Binding of a rabbit serum to looped peptides / Rabbit serum linear peptides / Rabbit serum looped peptides / Binding of a rabbit serum to linear peptides of protein N of SARS-CoV Urbani (Rabbit serum linear peptides) / Binding of a rabbit serum to looped/cyclic peptides of protein N of SARS-CoV Urbani (Rabbit serum looped peptides): unit not given here
[3] = test system: antibodies in sera from SARS patients (sera 1a, 1b, 2, 6, 37, 62, London, SARS-yellow, SARS-green); type: binding, human; set-up: Binding of serum 6 to linear peptides of protein X1 of SARS-CoV Urbani / Binding of serum 37 to linear peptides of protein X1 of SARS-CoV Urbani / Binding of serum 6 to looped/cyclic peptide (PEPSCAN-ELISA) / Binding of serum 37 to looped/cyclic peptide (PEPSCAN-ELISA) / Binding of serum 37 to looped/cyclic peptides of protein X1 of SARS-CoV Urbani / Binding of serum 6 to linear peptides of protein X2 / Binding of serum 37 to linear peptides of protein X2 / Binding of serum 37 to looped/cyclic peptides of protein X2 of SARS-CoV Urbani / Binding of serum 6 to linear peptides of protein M of SARS-CoV Urbani / Binding of serum 37 to linear peptides of protein M of SARS-CoV Urbani / Binding of serum 6 to looped/cyclic peptides of protein M of SARS-CoV Urbani / Binding of serum 37 to looped/cyclic peptides of protein M of SARS-CoV Urbani / Binding of serum 6 to linear peptides of protein X3 of SARS-CoV Urbani / Binding of serum 37 to linear peptides of protein X3 of SARS-CoV Urbani / Binding of serum 37 to looped/cyclic peptides of protein X3 of SARS-CoV Urbani / Binding of serum 6 to linear peptides of protein X4 of SARS-CoV Urbani / Binding of serum 37 to linear peptides of protein X4 of SARS-CoV Urbani / Binding of serum 37 to looped/cyclic peptides of protein X4 of SARS-CoV Urbani / Binding of serum 6 to linear peptides of protein X5 of SARS-CoV Urbani / Binding of serum 37 to linear peptides of protein X5 of SARS-CoV Urbani / Binding of serum 37 to looped/cyclic peptides of protein X5 of SARS-CoV Urbani / Binding of serum 6 to linear peptides of protein N of SARS-CoV Urbani / Binding of serum 37 to linear peptides of protein N of SARS-CoV Urbani / Binding of serum 6 to linear peptide (PEPSCAN-ELISA) / Binding of serum 1a to looped/cyclic peptides of protein N of SARS-CoV Urbani / Binding of serum 1b to looped/cyclic peptides of protein N of SARS-CoV Urbani / Binding of serum 2 to looped/cyclic peptides of protein N of SARS-CoV Urbani / Binding of serum 6 to looped/cyclic peptides of protein N of SARS-CoV Urbani / Binding of serum 37 to looped/cyclic peptides of protein N of SARS-CoV Urbani / Binding of serum 62 to looped/cyclic peptides of protein N of SARS-CoV Urbani / Binding of serum London to looped/cyclic peptides of protein N of SARS-CoV Urbani / Binding of serum SARS-green to looped/cyclic peptides of protein N of SARS-CoV Urbani: unit not given here

## FAAYNRYRIGNYKLN
[1]
  Binding of Control Serum Blood-Bank to Looped peptides of the protein M of SARS-CoV Urbani: 0.6
  Binding of Control serum Blood-bank to linear peptides of the protein M of SARS-CoV Urbani: 0.7
  Binding of Control serum LUMC to linear peptides of the protein M of SARS-CoV Urbani: 0.3
  Binding of Control serum LUMC to looped peptides of the protein M of SARS-CoV Urbani: 0.7
[2]
  Rabbit serum linear peptides: 0.3
  Rabbit serum looped peptides: 0.6
[3]
  Binding of serum 1a to linear peptides of protein M of SARS-CoV Urbani: 0.6
  Binding of serum 1a to looped/cyclic peptides of protein M of SARS-CoV Urbani: 0.8
  Binding of serum 1b to linear peptides of protein M of SARS-CoV Urbani: 0.3
  Binding of serum 1b to looped/cyclic peptides of protein M of SARS-CoV Urbani: 0.4
  Binding of serum 2 to linear peptides of protein M of SARS-CoV Urbani: 0.5
  Binding of serum 2 to looped/cyclic peptides of protein M of SARS-CoV Urbani: 0.7
  Binding of serum 6 to linear peptides of protein M of SARS-CoV Urbani: 0.4
  Binding of serum 6 to looped/cyclic peptides of protein M of SARS-CoV Urbani: 1.3
  Binding of serum 37 to linear peptides of protein M of SARS-CoV Urbani: 0.5
  Binding of serum 37 to looped/cyclic peptides of protein M of SARS-CoV Urbani: 0.6
  Binding of serum 62 to linear peptides of protein M of SARS-CoV Urbani: 0.7
  Binding of serum 62 to looped/cyclic peptides of protein M of SARS-CoV Urbani: 0.6
  Binding of serum London to linear peptides of protein M of SARS-CoV Urbani: 0.3
  Binding of serum London to looped/cyclic peptides of protein M of SARS-CoV Urbani: 0.7
  Binding of serum SARS-green to linear peptides of protein M of SARS-CoV Urbani: 0.2
  Binding of serum SARS-green to looped/cyclic peptides of protein M of SARS-CoV Urbani: 0.2
  Binding of serum SARS-yellow to linear peptides of protein M of SARS-CoV Urbani: 0.0
  Binding of serum SARS-yellow to looped/cyclic peptides of protein M of SARS-CoV Urbani: 0.8

## MAISPKFTTSLSLHK
[1]
  Binding of Control Serum Blood-Bank to Looped peptides: 0.7
  Binding of Control serum Blood-bank to linear peptides: 1.0
  Binding of Control serum LUMC to linear peptides: 0.7
  Binding of Control serum LUMC to looped peptides: 0.6
[2]
  Binding of a rabbit serum to linear peptides: 0.3
  Binding of a rabbit serum to looped peptides: 0.6
[3]
  Binding of serum 1a to linear peptides of protein X2: 0.7
  Binding of serum 1a to looped/cyclic peptides of protein X2 of SARS-CoV Urbani: 0.5
  Binding of serum 1b to linear peptides of protein X2: 0.7
  Binding of serum 1b to looped/cyclic peptides of protein X2 of SARS-CoV Urbani: 0.5
  Binding of serum 2 to linear peptides of protein X2: 0.7
  Binding of serum 2 to looped/cyclic peptides of protein X2 of SARS-CoV Urbani: 0.4
  Binding of serum 6 to linear peptides of protein X2: 0.6
  Binding of serum 6 to looped/cyclic peptides of protein X2 of SARS-CoV Urbani: 0.4
  Binding of serum 37 to linear peptides of protein X2: 0.7
  Binding of serum 37 to looped/cyclic peptides of protein X2 of SARS-CoV Urbani: 0.4
  Binding of serum 62 to linear peptides of protein X2: 0.7
  Binding of serum 62 to looped/cyclic peptides of protein X2 of SARS-CoV Urbani: 0.6
  Binding of serum London to linear peptides of protein X2: 0.5
  Binding of serum London to looped/cyclic peptides of protein X2 of SARS-CoV Urbani: 0.2
  Binding of serum SARS-green to linear peptides of protein X2: 0.5
  Binding of serum SARS-green to looped/cyclic peptides of protein X2 of SARS-CoV Urbani: 0.4
  Binding of serum SARS-yellow to linear peptides of protein X2: 0.5
  Binding of serum SARS-yellow to looped/cyclic peptides of protein X2 of SARS-CoV Urbani: 0.5

## YIIKLVFLWLLWPVT
[1]
  Binding of Control Serum Blood-Bank to Looped peptides of the protein M of SARS-CoV Urbani: 0.8
  Binding of Control serum Blood-bank to linear peptides of the protein M of SARS-CoV Urbani: 0.8
  Binding of Control serum LUMC to linear peptides of the protein M of SARS-CoV Urbani: 0.5
  Binding of Control serum LUMC to looped peptides of the protein M of SARS-CoV Urbani: 0.8
[2]
  Rabbit serum linear peptides: 0.4
  Rabbit serum looped peptides: 0.2
[3]
  Binding of serum 1a to linear peptides of protein M of SARS-CoV Urbani: 0.8
  Binding of serum 1a to looped/cyclic peptides of protein M of SARS-CoV Urbani: 0.8
  Binding of serum 1b to linear peptides of protein M of SARS-CoV Urbani: 0.6
  Binding of serum 1b to looped/cyclic peptides of protein M of SARS-CoV Urbani: 0.8
  Binding of serum 2 to linear peptides of protein M of SARS-CoV Urbani: 0.9
  Binding of serum 2 to looped/cyclic peptides of protein M of SARS-CoV Urbani: 0.6
  Binding of serum 6 to linear peptides of protein M of SARS-CoV Urbani: 0.4
  Binding of serum 6 to looped/cyclic peptides of protein M of SARS-CoV Urbani: 0.8
  Binding of serum 37 to linear peptides of protein M of SARS-CoV Urbani: 0.7
  Binding of serum 37 to looped/cyclic peptides of protein M of SARS-CoV Urbani: 0.7
  Binding of serum 62 to linear peptides of protein M of SARS-CoV Urbani: 0.8
  Binding of serum 62 to looped/cyclic peptides of protein M of SARS-CoV Urbani: 0.7
  Binding of serum London to linear peptides of protein M of SARS-CoV Urbani: 0.3
  Binding of serum London to looped/cyclic peptides of protein M of SARS-CoV Urbani: 0.3
  Binding of serum SARS-green to linear peptides of protein M of SARS-CoV Urbani: 0.4
  Binding of serum SARS-green to looped/cyclic peptides of protein M of SARS-CoV Urbani: 0.4
  Binding of serum SARS-yellow to linear peptides of protein M of SARS-CoV Urbani: 0.1
  Binding of serum SARS-yellow to looped/cyclic peptides of protein M of SARS-CoV Urbani: 0.5

## MRFFTLGSITAQPVK
[1]
  Binding of Control Serum Blood-Bank to Looped peptides: 0.2
  Binding of Control serum Blood-bank to linear peptides: 0.4
  Binding of Control serum LUMC to linear peptides: 0.7
  Binding of Control serum LUMC to looped peptides: 0.4
[2]
  Binding of a rabbit serum to linear peptides: 0.4
  Binding of a rabbit serum to looped peptides: 0.2
[3]
  Binding of serum 1a to linear peptides of protein X1 of SARS-CoV Urbani: 0.6
  Binding of serum 1a to looped/cyclic peptide (PEPSCAN-ELISA): 0.3
  Binding of serum 1b to linear peptides of protein X1 of SARS-CoV Urbani: 0.4
  Binding of serum 1b to looped/cyclic peptide (PEPSCAN-ELISA): 0.1
  Binding of serum 2 to linear peptides of protein X1 of SARS-CoV Urbani: 0.4
  Binding of serum 2 to looped/cyclic peptide (PEPSCAN-ELISA): 0.1
  Binding of serum 6 to linear peptides of protein X1 of SARS-CoV Urbani: 0.6
  Binding of serum 6 to looped/cyclic peptide (PEPSCAN-ELISA): 0.2
  Binding of serum 37 to linear peptides of protein X1 of SARS-CoV Urbani: 0.6
  Binding of serum 37 to looped/cyclic peptide (PEPSCAN-ELISA): 0.2
  Binding of serum 62 to linear peptides of protein X1 of SARS-CoV Urbani: 0.4
  Binding of serum 62 to looped/cyclic peptide (PEPSCAN-ELISA): 0.3
  Binding of serum London to linear peptides of protein X1 of SARS-CoV Urbani: 0.5
  Binding of serum London to looped/cyclic peptide (PEPSCAN-ELISA): 0.2
  Binding of serum SARS-green to linear peptides of protein X1 of SARS-CoV Urbani: 0.2
  Binding of serum SARS-green to looped/cyclic peptide (PEPSCAN-ELISA): 0.1
  Binding of serum SARS-yellow to linear peptides of protein X1 of SARS-CoV Urbani: 0.4
  Binding of serum SARS-yellow to looped/cyclic peptide (PEPSCAN-ELISA): 0.1

## YSTAWLCALGKVLPF
[1]
  Binding of Control Serum Blood-Bank to Looped peptides: 0.4
  Binding of Control serum Blood-bank to linear peptides: 0.8
  Binding of Control serum LUMC to linear peptides: 0.5
  Binding of Control serum LUMC to looped peptides: 0.5
[2]
  Rabbit serum linear peptides: 0.7
  Rabbit serum looped peptides: 1.0
[3]
  Binding of serum 1a to linear peptides of protein X5 of SARS-CoV Urbani: 0.7
  Binding of serum 1a to looped/cyclic peptides of protein X5 of SARS-CoV Urbani: 0.5
  Binding of serum 1b to linear peptides of protein X5 of SARS-CoV Urbani: 0.6
  Binding of serum 1b to looped/cyclic peptides of protein X5 of SARS-CoV Urbani: 0.3
  Binding of serum 2 to linear peptides of protein X5 of SARS-CoV Urbani: 0.7
  Binding of serum 2 to looped/cyclic peptides of protein X5 of SARS-CoV Urbani: 0.5
  Binding of serum 6 to linear peptides of protein X5 of SARS-CoV Urbani: 0.6
  Binding of serum 6 to looped/cyclic peptides of protein X5 of SARS-CoV Urbani: 0.6
  Binding of serum 37 to linear peptides of protein X5 of SARS-CoV Urbani: 0.6
  Binding of serum 37 to looped/cyclic peptides of protein X5 of SARS-CoV Urbani: 0.5
  Binding of serum 62 to linear peptides of protein X5 of SARS-CoV Urbani: 0.8
  Binding of serum 62 to looped/cyclic peptides of protein X5 of SARS-CoV Urbani: 0.8
  Binding of serum London to linear peptides of protein X5 of SARS-CoV Urbani: 0.8
  Binding of serum London to looped/cyclic peptides of protein X5 of SARS-CoV Urbani: 0.4
  Binding of serum SARS-green to linear peptides of protein X5 of SARS-CoV Urbani: 0.5
  Binding of serum SARS-green to looped/cyclic peptides of protein X5 of SARS-CoV Urbani: 0.2
  Binding of serum SARS-yellow to linear peptides of protein X5 of SARS-CoV Urbani: 0.4
  Binding of serum SARS-yellow to looped/cyclic peptides of protein X5 of SARS-CoV Urbani: 0.9
